Publication PMC2954458 (Biochemistry, 2010)

Target: Pdr5 (Saccharomyces cerevisiae, UniProt P33302)
Assay: ATPase assay, purified plasma membrane vesicles, Δpdr5 background subtracted
Assay type: biochemical
Details: 100 mM MOPS pH 7.4, 50 mM KCl, 10 mM MgCl2, 5 mM NaN3, 35 °C

Pdr5, sequence (P33302 whole entry): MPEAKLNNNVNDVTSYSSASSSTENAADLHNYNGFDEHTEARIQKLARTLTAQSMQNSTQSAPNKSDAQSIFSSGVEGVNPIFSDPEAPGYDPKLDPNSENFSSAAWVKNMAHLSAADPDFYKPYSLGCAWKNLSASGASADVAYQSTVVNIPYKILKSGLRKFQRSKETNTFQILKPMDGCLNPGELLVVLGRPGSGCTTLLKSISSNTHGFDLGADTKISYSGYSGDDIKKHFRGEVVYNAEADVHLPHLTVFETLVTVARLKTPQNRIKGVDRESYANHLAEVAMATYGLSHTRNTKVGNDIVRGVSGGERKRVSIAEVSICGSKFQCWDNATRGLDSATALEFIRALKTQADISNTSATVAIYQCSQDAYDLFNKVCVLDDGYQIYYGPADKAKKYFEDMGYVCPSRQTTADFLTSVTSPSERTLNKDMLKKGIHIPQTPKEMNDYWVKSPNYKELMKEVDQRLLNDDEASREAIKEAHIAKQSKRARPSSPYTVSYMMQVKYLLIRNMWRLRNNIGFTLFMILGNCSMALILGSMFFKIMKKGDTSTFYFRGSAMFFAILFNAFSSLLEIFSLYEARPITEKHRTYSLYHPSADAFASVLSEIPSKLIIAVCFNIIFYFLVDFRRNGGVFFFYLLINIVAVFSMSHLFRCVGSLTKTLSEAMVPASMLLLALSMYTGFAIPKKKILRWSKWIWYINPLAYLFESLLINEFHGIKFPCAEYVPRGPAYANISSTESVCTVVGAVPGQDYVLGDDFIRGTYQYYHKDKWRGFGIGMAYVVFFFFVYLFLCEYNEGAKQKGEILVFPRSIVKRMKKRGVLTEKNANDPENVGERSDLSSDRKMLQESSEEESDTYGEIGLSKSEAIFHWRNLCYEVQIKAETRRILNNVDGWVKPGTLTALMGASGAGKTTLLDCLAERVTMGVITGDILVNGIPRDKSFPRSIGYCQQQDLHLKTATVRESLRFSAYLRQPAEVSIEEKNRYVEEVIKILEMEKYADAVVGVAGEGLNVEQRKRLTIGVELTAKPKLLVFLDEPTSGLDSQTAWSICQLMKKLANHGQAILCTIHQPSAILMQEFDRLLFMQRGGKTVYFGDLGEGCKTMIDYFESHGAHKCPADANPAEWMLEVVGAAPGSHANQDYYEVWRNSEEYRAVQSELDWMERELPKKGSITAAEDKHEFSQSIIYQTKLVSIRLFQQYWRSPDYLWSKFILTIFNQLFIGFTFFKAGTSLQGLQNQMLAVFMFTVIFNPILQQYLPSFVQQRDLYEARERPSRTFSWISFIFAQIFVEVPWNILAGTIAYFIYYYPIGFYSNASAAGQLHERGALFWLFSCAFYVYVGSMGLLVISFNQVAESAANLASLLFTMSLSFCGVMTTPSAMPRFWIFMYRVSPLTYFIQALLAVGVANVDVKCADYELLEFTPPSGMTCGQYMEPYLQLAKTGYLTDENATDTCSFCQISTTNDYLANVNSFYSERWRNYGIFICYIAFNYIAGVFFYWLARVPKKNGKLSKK

## Nc1ncnc2c1ncn2[C@@H]1O[C@H](COP(=O)(O)OP(=O)(O)OP(=O)(O)O)[C@@H](O)[C@H]1O [ATP]
  Km: There was little or no difference in the observed Kms
